In US20140357487A1, “PLANTS HAVING INCREASED TOLERANCE TO HERBICIDES” (BASF SE, priority 2011, published 2014):

How the values were obtained:
[1] = system: Chlamydomonas HPPD1; assay: HPPD activity assay, Chlamydomonas HPPD1; type: biochemical, Chlamydomonas reinhardtii; details: normalized on Arabidopsis wild-type HPPD
Description: HPPD produces homogentisic acid and CO2 from 4-hydroxyphenylpyruvate (4-HPP) and O2. The activity assay for HPPD is based on the analysis of homogentisic acid by reversed phase HPLC.
The assay mixture can contain 150 mM potassium phosphate buffer pH 7.0, 50 mM L-ascorbic acid, 1 μM FeSO4 and 7 μg of purified enzyme in a total volume of 1 ml.
Inhibitors are dissolved in DMSO (dimethylsulfoxide) to a concentration of 20 mM or 0.5 mM, respectively. From this stock solution serial five-fold dilutions are prepared in DMSO, which are used in the assay. The respective inhibitor solution accounts for 1% of the assay volume. Thus, final inhibitor concentrations range from 200 μM to 2.5 nM or from 5 μM to 63 pM, respectively. After a preincubation of 30 min the reaction is started by adding 4-HPP to a final concentration of 0.1 mM. The reaction is allowed to proceed for 120 min at room temperature. The reaction is stopped by addition of 100 μl of 4.5 M phosphoric acid.
Activities are normalized by setting the uninhibited enzyme activity to 100%. IC50 values are calculated using non-linear regression.
The assay mixture can contain 150 mM potassium phosphate buffer pH 7.0, 50 mM L-ascorbic acid, 100 μM Catalase (Sigma-Aldrich), 1 μM FeSO4 and 0.2 units of purified HPPD enzyme in a total volume of 505 μl. […]
Inhibitors are dissolved in DMSO (dimethylsulfoxide) to a concentration of 0.5 mM. […] IC50 values are calculated using non-linear regression.
Using methods which are described in the above examples or well known in the art, purified, recombinant wildtype HPPD enzymes are characterized with respect to their kinetic properties and sensitivity towards HPPD inhibiting herbicides. Apparent michaelis constants (Km) and maximal reaction velocities (Vmax) are calculated by non-linear regression with the software GraphPad Prism 5 (GraphPad Software, La Jolla, USA) using a substrate inhibition model. […] Weighted means (by standard error) of Km and […] values are calculated from at least three independent experiments. […]

[2] = system: soybean plants, wild type (transgene none); assay: Greenhouse testing of soybean plants, wild type; type: in vivo, Glycine max; details: 5 days after herbicide treatment
Source text: Various methods for the production of stably transformed plants are well known in the art. Coumarone-derivative herbicide tolerant soybean (Glycine max) or corn (Zea mays) plants can be produced by a method described by Olhoft et al. (US patent 2009/0049567). Briefly, HPPD or HST encoding polynucleotides are cloned into a binary vector using standard cloning techniques as described by Sambrook et al. (Molecular cloning (2001) Cold Spring Harbor Laboratory Press). The final vector construct contains an HPPD or HST encoding sequence flanked by a promoter sequence (e.g. the ubiquitin promoter (PcUbi) sequence) and a terminator sequence (e.g. the nopaline synthase terminator (NOS) sequence) and a resistance marker gene cassette (e.g. AHAS) (FIG. 2). Optionally, the HPPD or HST gene can provide the means of selection. Agrobacterium-mediated transformation is used to introduce the DNA into soybean's axillary meristem cells at the primary node of seedling explants. After inoculation and co-cultivation with Agrobacteria, the explants are transferred to shoot induction medium without selection for one week. The explants are subsequently transferred to shoot induction medium with 1-3 μM imazapyr (Arsenal) for 3 weeks to select for transformed cells. Explants with healthy callus/shoot pads at the primary node are then transferred to shoot elongation medium containing 1-3 μM imazapyr until a shoot elongates or the explant dies. After regeneration, transformants are transplanted to soil in small pots, placed in growth chambers (16 hr day/8 hr night; 25° C. day/23° C. night; 65% relative humidity; 130-150 mE m−2 s−1) and subsequently tested for the presence of the T-DNA via Taqman analysis. After a few weeks, healthy, transgenic positive, single copy events are transplanted to larger pots and allowed to grow in the growth chamber. Transformation of corn plants is done by a method described by McElver and Singh (WO 2008/124495). Plant transformation vector constructs containing HPPD or HST sequences are introduced into maize immature embryos via Agrobacterium-mediated transformation. Transformed cells are selected in selection media supplemented with 0.5-1.5 μM imazethapyr for 3-4 weeks. Transgenic plantlets are regenerated on plant regeneration media and rooted afterwards. Transgenic plantlets are subjected to TaqMan analysis for the presence of the transgene before being transplanted to potting mixture and grown to maturity in greenhouse. Arabidopsis thaliana is transformed with HPPD or HST sequences by floral dip method as described by McElver and Singh (WO 2008/124495). Transgenic Arabidopsis plants are subjected to Tag Man analysis for analysis of the number of integration loci. Transformation of Oryza sativa (rice) are done by protoplast transformation as described by Peng et al. (U.S. Pat. No. 6,653,529)
Transgenic plants expressing heterologous HPPD or HST enzymes are tested for tolerance against coumarone-derivative herbicides in greenhouse experiments.
For post emergence treatment, the test plants are first grown to a height of 3 to 15 cm, depending on the plant habit, and only then treated with the herbicides. For this purpose, the test plants are either sown directly and grown in the same containers, or they are first grown separately and transplanted into the test containers a few days prior to treatment.
Depending on the species, the plants are kept at 10-25° C. or 20-35° C. The test period extends over 3 weeks. During this time, the plants are tended and their response to the individual treatments is evaluated. […] Tolerance to coumarone-derivative herbicides can also be assessed in Arabidopsis. In this case transgenic Arabidopsis thaliana plants are assayed for improved tolerance to coumarone-derivative herbicides in 48-well plates. Seeds are surface sterilized by stirring for 5 min in ethanol+water (70+30 by volume), rinsing one time with ethanol+water (70+30 by volume) and two times with a sterile, deionized water. […]

SMILES: CC1=NOC(c2c(Cl)ccc(C3=C(O)c4ncccc4C(C)(C)S3(=O)=O)c2Cl)C1 (centres unmarked) [Inhibitor 1, 7-[2,4-dichloro-3-(3-methyl-4,5-dihydroisoxazol-5-yl)phenyl]-5,5-dimethyl-6,6-dioxo-thiopyrano[4,3-b]pyridin-8-ol]
- Normalized tolerance index TI [1]: 2.1

SMILES: CC1(C)c2cccnc2C(O)=C(c2ccc(Cl)nc2Cl)S1(=O)=O [Inhibitor 2, 7-(2,6-dichloro-3-pyridyl)-5,5-dimethyl-6,6-dioxo-thiopyrano[4,3-b]pyridin-8-ol]
- Injury evaluation, scale of 1-100, bleaching phenotype ([2]; 2.5 g/ha): 11
- Injury evaluation, scale of 1-100, bleaching phenotype ([2]; 10 g/ha): 17
- Injury evaluation, scale of 1-100, bleaching phenotype ([2]; 40 g/ha): 23

SMILES: COCCOCc1c(Cl)ccc(C2=C(O)c3ncccc3C(C)(C)S2(=O)=O)c1Cl [Inhibitor 3, 7-[2,4-dichloro-3-(2-methoxyethoxymethyl)phenyl]-5,5-dimethyl-6,6-dioxo-thiopyrano[4,3-b]pyridin-8-ol]
- Normalized tolerance index TI [1]: 0.1

SMILES: Cc1c(C(=O)c2cnn(C)c2O)ccc(S(C)(=O)=O)c1C1=NOCC1 [Topramezone, reference compound]
- Injury evaluation, scale of 1-100, bleaching phenotype ([2]; 6.25 g/ha): 21
- Injury evaluation, scale of 1-100, bleaching phenotype ([2]; 25 g/ha): 22
- Injury evaluation, scale of 1-100, bleaching phenotype ([2]; 100 g/ha): 25
